Assay results taken from patent US20100305087A1, “ACTIVE PHARMACEUTICAL INGREDIENT ON A SOLID SUPPORT, AMORPHOUS AND WITH AN IMPROVED SOLUBILITY” (Lek Pharmaceuticals d.d., priority 2007, published 2010).
Blank lines part the entries; values can stand above or below the compound they belong to.

Legend:
[1] = Dissolution profile of ezetimibe preparations in water (amount dissolved over time); format: physicochemical
Excerpt: The results are shown in Tables 1 to 3, and FIGS. 1 to 3.

[2] = Dissolution profile of atovaquone preparations in 10 mM triethylamine/HCl (pH=10) buffer; format: physicochemical
[3] = cited from earlier work

Amount dissolved ([1]; Ezetimibe and Aerosil 200, time 10 min): 0.19 µg/mL
Amount dissolved ([1]; Ezetimibe and Aerosil 200, time 20 min): 0.20 µg/mL
Amount dissolved ([1]; Ezetimibe and Aerosil 200, time 45 min): 0.27 µg/mL
Amount dissolved ([1]; Ezetimibe and Aerosil 200, time 100 min): 0.41 µg/mL
SMILES: O=C1[C@H](CC[C@H](O)c2ccc(F)cc2)[C@@H](c2ccc(O)cc2)N1c1ccc(F)cc1 [Amorphous ezetimibe, 1-(4-fluorophenyl)-3-[3-(4-fluorophenyl)-3-hydroxy-propyl]-4-(4-hydroxyphenyl)-azetidin-2-one]

Amount dissolved ([2]; Atovaquone and Aerosil 200, time 10 min): 0.16 µg/mL
Amount dissolved ([2]; Atovaquone and Aerosil 200, time 20 min): 0.7 µg/mL
Amount dissolved ([2]; Atovaquone and Aerosil 200, time 60 min): 4.1 µg/mL
Amount dissolved ([2]; Atovaquone and Aerosil 200, time 100 min): 6.2 µg/mL
SMILES: O=C1C(=O)c2ccccc2C(O)=C1C1CCC(c2ccc(Cl)cc2)CC1 (centres unmarked) [Crystalline atovaquone, 3-[4-(4-chlorophenyl)cyclohexyl]-4-hydroxy-naphthalene-1,2-dione]

Amount dissolved ([1]; Ezetimibe and Prosolv, time 10 min): 0.08 µg/mL
Amount dissolved ([1]; Ezetimibe and Prosolv, time 20 min): 0.13 µg/mL
Amount dissolved ([1]; Ezetimibe and Prosolv, time 60 min): 0.12 µg/mL
Amount dissolved ([1]; Ezetimibe and Prosolv, time 100 min): 0.25 µg/mL
SMILES: O=C1[C@H](CC[C@H](O)c2ccc(F)cc2)[C@@H](c2ccc(O)cc2)N1c1ccc(F)cc1 [Crystalline ezetimibe, 1-(4-fluorophenyl)-3-[3-(4-fluorophenyl)-3-hydroxy-propyl]-4-(4-hydroxyphenyl)-azetidin-2-one]

SMILES: O=C1C(=O)c2ccccc2C(O)=C1C1CCC(c2ccc(Cl)cc2)CC1 (centres unmarked) [atovaquone, 3-[4-(4-chlorophenyl)cyclohexyl]-4-hydroxy-naphthalene-1,2-dione]
log P/hydrophobicity value [3]: 5.251

SMILES: O=C1[C@H](CC[C@H](O)c2ccc(F)cc2)[C@@H](c2ccc(O)cc2)N1c1ccc(F)cc1 [ezetimibe, 1-(4-fluorophenyl)-3-[3-(4-fluorophenyl)-3-hydroxy-propyl]-4-(4-hydroxyphenyl)-azetidin-2-one]
log P/hydrophobicity value [3]: 4.584
